{
  "source": "patent US20160000504A1",
  "about": "“METHOD FOR TRAINING IMMUNE CELLS USING MILLIMETER WAVE THERAPY” (Electrohealing Holdings, Inc., priority 2014, published 2016)",
  "origin": "cited, not measured here",
  "test_system": "B16 melanoma cells",
  "settings": "1 mg per kg thirty minutes prior to each treatment; MMWT 61.22 GHz, 5 day delay before first irradiation; groups seven and eight vs three and four (FIG. 2A vs FIG. 2B)",
  "note": "Where a name gives a salt, the structure may show the parent alone.",
  "data": [
    {"molecule": "C=CCN1CC[C@]23c4c5ccc(O)c4O[C@H]2C(=O)CC[C@@]3(O)[C@H]1C5", "note": "[naloxone hydrochloride]", "values": [
      {"measurement": "change in tumor size: effect of opioid antagonist on MMWT inhibition of tumor growth", "result": "blocks the beneficial effects of MMWT"}
    ]}
  ]
}
